Results published in patent publication US8629283B2, “Compounds that modulate negative-sense, single-stranded RNA virus replication and uses thereof” (Icahn School of Medicine at Mount Sinai, priority 2008, dated 2014).
“Also recorded” adds a separate entry of the source.

Test system: influenza virus
Format: cell-based

Row | SMILES | susceptibility of passaged versus unpassaged virus (resistance)
1 | N#Cc1cc2c(OCC(O)CN3CCN(C(c4ccccc4)c4ccccc4)CC3)cccc2[nH]1 (centres unmarked) [SDZ-201106] | No difference; also recorded: emergence of resistant viruses was not observed
2 | CC(=O)c1c(O)c(C)c(O)c(Cc2c(O)c3c(c(C(=O)/C=C/c4ccccc4)c2O)OC(C)(C)C=C3)c1O [rottlerin] | No difference; also recorded: emergence of resistant viruses was not observed
